Results on 4 molecules are retold here after US20230051204A1, “ANTIMICROBIAL COMPOSITION CONTAINING WASP EXTRACT AS ACTIVE INGREDIENT” (priority 2021, published 2023).

Where “and” joins values, the source holds several entries; their conditions need not be identical. Identical values can stand only once.

One data set relates to human erythrocytes. Briefly: Human erythrocyte hemolytic activity. The following applies: 37° C., 30 minutes. How it is done: In order to evaluate the acute toxicities of the Vespa velutina nigrithorax, V. simillima simillima Smith and V. mandarinia Smith extracts and the fractions thereof, the human erythrocyte hemolytic activities thereof were evaluated. At this time, the hemolytic activity was evaluated according to a previous report (Son Ho-Yong et al., 2014, Korean J. Microbiol. Biotechnol. 42: 285-292). Briefly, 100 μl of human erythrocytes were washed three times with PBS and added to a 96-well microplate, and 100 μl of a sample solution at various concentrations was added thereto and then allowed to react at 37° C. for 30 minutes. Thereafter, the reaction solution was centrifuged at 1,500 rpm for 10 minutes, and 100 μl of the supernatant was transferred to a fresh microtiter plate, and then the degree of hemoglobin leakage following hemolysis was measured at 414 nm. DMSO (2%) was used as a solvent control for the sample, and Triton X-100 (1 mg/ml) was used as an experimental control for hemolysis of erythrocytes. Hemolytic activity was calculated using the following equation.
(%) Hemolysis=[(Abs. S−Abs. C)/(Abs. T−Abs. C)]×100
Abs. S: absorbance of sample-added group
Abs. C: absorbance of DMSO-added group
Abs. T: absorbance of Triton X-100-added group

For data set [1], the system named is gram-positive bacteria, gram-negative bacteria and fungi. As to the kind of experiment: Disc-paper clear zone test, summary over the whole panel. It is filed as cell-based. The following applies: 1 μg/disc; span over the gram-positive and gram-negative bacteria; read-out: Clear zone size. The text has this: (§1) For evaluation of the antibacterial activities, the following strains were used: Escherichia coli KCTC 1682, Proteus vulgaris KCTC 2433, Pseudomonas aeruginosa KACC 10186, and Salmonella typhimurium KCTC 1926, which are Gram-negative bacteria, and Staphylococcus aureus KCTC 1916, Staphylococcus epidermidis ATCC 12228, and Listeria monocytogenes KACC 10550, Bacillus subtilis KCTC 1924, which are Gram-positive bacteria. Meanwhile, for evaluation of the antifungal activities, Saccharomyces cerevisiae IF0 0233 and Candida albicans KCTC 1940 that causes Candidiasis fungal infection were used.
First, for evaluation of the antibacterial activities, each bacterial strain was inoculated into nutrient broth (Difco Co., USA) and cultured at 37° C. for 24 hours. […] For evaluation of the antifungal activities, each fungal strain was cultured using Sabouraud dextrose (Difco Co. USA) at 30° C. for 24 hours in the same manner as described above, and the antifungal activity of each extract sample was evaluated by measuring the size of the clear zone. […] The size of the clear zone was measured by measuring, in units of mm, the diameter of the part where growth was invisible with the naked eye, and was expressed as a representative result after three or more evaluations.

Data set [2] has as its system Staphylococcus epidermidis ATCC 12228. Briefly: Disc-paper clear zone test, antibacterial. It is filed as cell-based. The arrangement: key: —: no clear zone. The following applies: antibiotic 1 μg/disc; SE.
Text: as §1
(§2) First, for evaluation of the antibacterial activities, each bacterial strain was inoculated into nutrient broth (Difco Co., USA) and cultured at 37° C. for 24 hours. Then, each strain was adjusted to an O.D.600 of 0.1, and then 100 μl of each strain was plated on a Petri dish (90 mm, Green Cross, Korea) containing nutrient agar (Difco Co., USA) medium, and 5 μl of each extract sample added to sterile disc-paper (6.5 mm diameter, Whatsman No. 2) was added to each strain which was then incubated at 37° C. for 24 hours. For evaluation of the antifungal activities, each fungal strain was cultured using Sabouraud dextrose (Difco Co. USA) at 30° C. for 24 hours in the same manner as described above, and the antifungal activity of each extract sample was evaluated by measuring the size of the clear zone. As a control, each of the antibacterial agent ampicillin and the antifungal agent miconazole (Sigma Co., USA) was at a concentration of 1 μg/disc. The size of the clear zone was measured by measuring, in units of mm, the diameter of the part where growth was invisible with the naked eye, and was expressed as a representative result after three or more evaluations.
(§3) The antimicrobial activities of the fraction of each of the Vespa velutina nigrithorax, V. simillima simillima Smith and V. mandarinia Smith extracts, prepared in Example 4, were measured according to the same method as the antibacterial and antifungal activity evaluation described in Example 3.

Data set [3] deals with Escherichia coli KCTC 1682. Briefly: Disc-paper clear zone test, antibacterial. It is filed as cell-based. The arrangement: key: —: no clear zone. The following applies: antibiotic 1 μg/disc; EC.
Text: as §1, §2, §3

The subject of data set [4] is Pseudomonas aeruginosa KACC 10186. Briefly: Disc-paper clear zone test, antibacterial. Further details: key: —: no clear zone. The following applies: antibiotic 1 μg/disc; PA. It is filed as cell-based.
Text: as §1, §2, §3

The test system of data set [5] is Listeria monocytogenes KACC 10550. As to the kind of experiment: Disc-paper clear zone test, antibacterial. It is filed as cell-based. The arrangement: key: —: no clear zone. The following applies: antibiotic 1 μg/disc; LM.
Text: as §1, §2, §3

Data set [6] concerns Salmonella typhimurium KCTC 1926. As to the kind of experiment: Disc-paper clear zone test, antibacterial. It is filed as cell-based. Further details: key: —: no clear zone. The following applies: antibiotic 1 μg/disc; ST.
Text: as §1, §2, §3

The subject of data set [7] is Staphylococcus aureus KCTC 1916. As to the kind of experiment: Disc-paper clear zone test, antibacterial. The following applies: antibiotic 1 μg/disc; SA. It is filed as cell-based. Further details: key: —: no clear zone.
Text: as §1, §2, §3

For data set [8], the system named is Bacillus subtilis KCTC 1924. Briefly: Disc-paper clear zone test, antibacterial. It is filed as cell-based. Further details: key: —: no clear zone. The following applies: antibiotic 1 μg/disc; BS.
Text: as §1, §2, §3

In data set [9] the test system is Proteus vulgaris KCTC 2433. As to the kind of experiment: Disc-paper clear zone test, antibacterial. In kind it is cell-based. The arrangement: key: —: no clear zone. The following applies: antibiotic 1 μg/disc; PV.
Text: as §1, §2, §3

The test system of data set [10] is Saccharomyces cerevisiae IF0 0233. As to the kind of experiment: Disc-paper clear zone test, antifungal. In kind it is cell-based. Further details: key: —: no clear zone. The following applies: antibiotic 1 μg/disc; SC.
Text: as §1, §2, §3

The test system of data set [11] is Candida albicans KCTC 1940. Briefly: Disc-paper clear zone test, antifungal. It is filed as cell-based. Further details: key: —: no clear zone. The following applies: antibiotic 1 μg/disc; CA.
Text: as §1, §2, §3

For `C[C@@H]1[C@H](O)[C@@H](C)/C=C/C=C/C=C/C=C/C=C/C=C/C=C/[C@H](O[C@@H]2O[C@H](C)[C@@H](O)[C@H](N)[C@@H]2O)C[C@@H]2O[C@](O)(C[C@@H](O)C[C@@H](O)[C@H](O)CC[C@@H](O)C[C@@H](O)CC(=O)O[C@H]1C)C[C@H](O)[C@H]2C(=O)O` [Amphotericin B], the “Human erythrocyte hemolytic activity” value with human erythrocytes (0.0032 mg/ml) is recorded as 6.5 ± 0.9%; in the data set with human erythrocytes (0.0063 mg/ml) it was 21.6 ± 3.7%; in the data set with human erythrocytes (0.0125 mg/ml) it was 48.2 ± 5.9%; in the data set with human erythrocytes (0.05 mg/ml), 72.4 ± 5.2%; in the data set on human erythrocytes (0.1 mg/ml) it was 95.8 ± 0.3%.

Turning to `CC1(C)S[C@@H]2[C@H](NC(=O)[C@H](N)c3ccccc3)C(=O)N2[C@H]1C(=O)O` [Ampicillin, ampicillin], the zone of inhibition at 1 µg/disc in data set [1] lay within 9 to 30 mm. The Clear zone in data set [2] is recorded as 20.0 mm; in data set [3] it was 9.0 mm; in data set [4] it was 16.0 mm; in [5], 26.0 mm; in data set [6] it was 20.0 mm; in [7], 26.0 mm. Further, the Clear zone is 23.5 mm in [8], 30.0 mm in data set [9], “—” in [10] and “—” in data set [11].

`Clc1ccc(COC(Cn2ccnc2)c2ccc(Cl)cc2Cl)c(Cl)c1` (stereo not drawn) [Miconazole, miconazole]: the Clear zone result in data set [2], in data set [3], in data set [4], in data set [5], in [6] and in data set [7] was “—” in each case. In addition, the Clear zone result in data set [8] is listed as “—”; in [9] it was “—”; in data set [10] it was 8.5 mm; in data set [11], 8.5 mm.

As for Triton X-100, the “Human erythrocyte hemolytic activity” value with human erythrocytes (1.0 mg/ml) was 100% and 100.0 ± 0.1%.
